± gives the expanded uncertainty stated by the source.
Details: 101.33 kPa, Liquid

CCCC[n+]1ccc(C)cc1.O=S(=O)([N-]S(=O)(=O)C(F)(F)F)C(F)(F)F
Details | mass density [kg/m3] | viscosity [mPa·s]
278.15 K | 1431 ± 1.8 | 169.9 ± 11
283.15 K | 1426.3 ± 1.8 | 124.19 ± 6.2
288.15 K | 1421.6 ± 1.8 | 93.27 ± 3.2
293.15 K | 1416.9 ± 1.8 | 71.72 ± 1.5
298.15 K | 1412.2 ± 1.7 | 56.33 ± 0.6
303.15 K | 1407.6 ± 1.7 | 45.07 ± 0.66
308.15 K | 1402.9 ± 1.7 | 36.67 ± 0.54
313.15 K | 1398.3 ± 1.7 | 30.28 ± 0.44
318.15 K | 1393.6 ± 1.7 | 25.34 ± 0.37
323.15 K | 1389 ± 1.7 | 21.45 ± 0.32
328.15 K | 1384.4 ± 1.7 | 18.36 ± 0.27
333.15 K | 1379.8 ± 1.7 | 15.87 ± 0.24
338.15 K | 1375.3 ± 1.7 | 13.82 ± 0.21
343.15 K | 1370.7 ± 1.7 | 12.13 ± 0.18
348.15 K | 1366.2 ± 1.7 | 10.72 ± 0.16
353.15 K | 1361.7 ± 1.6 | 9.54 ± 0.15
358.15 K | 1357.2 ± 1.6 | 8.531 ± 0.13
363.15 K | 1352.7 ± 1.6 | 7.673 ± 0.12

CCCCCC[n+]1ccccc1.O=S(=O)([N-]S(=O)(=O)C(F)(F)F)C(F)(F)F [1-hexylpyridinium bis(trifluromethylsulfonyl)imide]
Details | mass density [kg/m3] | viscosity [mPa·s]
278.15 K | 1412.5 ± 1.7 | 322.08 ± 32
283.15 K | 1407.8 ± 1.7 | 229.05 ± 19
288.15 K | 1403.2 ± 1.7 | 167.56 ± 11
293.15 K | 1398.7 ± 1.7 | 125.56 ± 6.3
298.15 K | 1394.2 ± 1.7 | 96.21 ± 3.5
303.15 K | 1389.7 ± 1.7 | 75.22 ± 1.7
308.15 K | 1385.2 ± 1.7 | 59.86 ± 0.75
313.15 K | 1380.7 ± 1.7 | 48.42 ± 0.7
318.15 K | 1376.3 ± 1.7 | 39.74 ± 0.58
323.15 K | 1371.8 ± 1.7 | 33.04 ± 0.48
328.15 K | 1367.3 ± 1.7 | 27.79 ± 0.41
333.15 K | 1362.9 ± 1.6 | 23.64 ± 0.35
338.15 K | 1358.5 ± 1.6 | 20.3 ± 0.3
343.15 K | 1354 ± 1.6 | 17.58 ± 0.26
348.15 K | 1349.6 ± 1.6 | 15.35 ± 0.23
353.15 K | 1345.3 ± 1.6 | 13.51 ± 0.2
358.15 K | 1340.9 ± 1.6 | 11.96 ± 0.18
363.15 K | 1336.6 ± 1.6 | 10.66 ± 0.16

CCC[n+]1cccc(C)c1.O=S(=O)([N-]S(=O)(=O)C(F)(F)F)C(F)(F)F
Details | mass density [kg/m3] | viscosity [mPa·s]
278.15 K | 1467.1 ± 1.9 | 159.86 ± 10
283.15 K | 1462.3 ± 1.9 | 117.81 ± 5.5
288.15 K | 1457.5 ± 1.8 | 89.22 ± 2.9
293.15 K | 1452.8 ± 1.8 | 69.11 ± 1.3
298.15 K | 1447.5 ± 1.8 | 54.94 ± 0.55
303.15 K | 1442.8 ± 1.8 | 44.22 ± 0.64
308.15 K | 1438.1 ± 1.8 | 36.15 ± 0.53
313.15 K | 1433.4 ± 1.8 | 29.98 ± 0.44
318.15 K | 1428.8 ± 1.8 | 25.2 ± 0.37
323.15 K | 1424.1 ± 1.8 | 21.43 ± 0.32
328.15 K | 1419.5 ± 1.8 | 18.41 ± 0.27
333.15 K | 1414.9 ± 1.8 | 15.97 ± 0.24
338.15 K | 1410.3 ± 1.7 | 13.97 ± 0.21
343.15 K | 1405.7 ± 1.7 | 12.31 ± 0.19
348.15 K | 1401.1 ± 1.7 | 10.93 ± 0.17
353.15 K | 1396.6 ± 1.7 | 9.769 ± 0.15
358.15 K | 1392.1 ± 1.7 | 8.782 ± 0.14
363.15 K | 1387.7 ± 1.7 | 7.937 ± 0.12

CCCC[n+]1cccc(C)c1.O=S(=O)([N-]S(=O)(=O)C(F)(F)F)C(F)(F)F
Details | mass density [kg/m3]
278.15 K | 1431.2 ± 1.8
283.15 K | 1426.6 ± 1.8
288.15 K | 1421.9 ± 1.8
293.15 K | 1417.4 ± 1.8
298.15 K | 1412.8 ± 1.7
303.15 K | 1408.2 ± 1.7
308.15 K | 1403.6 ± 1.7
313.15 K | 1399 ± 1.7
318.15 K | 1394.5 ± 1.7
323.15 K | 1389.9 ± 1.7
328.15 K | 1385.4 ± 1.7
333.15 K | 1380.9 ± 1.7
338.15 K | 1376.4 ± 1.7
343.15 K | 1371.9 ± 1.7
348.15 K | 1367.4 ± 1.7
353.15 K | 1362.9 ± 1.6
358.15 K | 1358.5 ± 1.6
363.15 K | 1354.1 ± 1.6

Capillary tube (Ostwald / Ubbelohde) method
Details | viscosity [mPa·s]
278.15 K | 195.43 ± 4.6
283.15 K | 142.73 ± 2.7
288.15 K | 107.15 ± 1.6
293.15 K | 82.19 ± 0.97
298.15 K | 64.36 ± 0.62
303.15 K | 51.39 ± 0.45
308.15 K | 41.64 ± 0.4
313.15 K | 34.26 ± 0.33
318.15 K | 28.57 ± 0.27
323.15 K | 24.1 ± 0.23
328.15 K | 20.57 ± 0.2
333.15 K | 17.71 ± 0.17
338.15 K | 15.38 ± 0.15
343.15 K | 13.47 ± 0.13
348.15 K | 11.9 ± 0.11
353.15 K | 10.56 ± 0.1
358.15 K | 9.44 ± 0.091
363.15 K | 8.484 ± 0.082

CCCCCCCC[n+]1cccc(C)c1 [1-octyl-3-methylpyridinium]
Details | mass density [kg/m3] | viscosity [mPa·s]
278.15 K | 1347.2 ± 1.6 | 398.72 ± 45
283.15 K | 1342.7 ± 1.6 | 281.38 ± 26
288.15 K | 1338.2 ± 1.6 | 204.35 ± 16
293.15 K | 1333.8 ± 1.6 | 151.98 ± 9.2
298.15 K | 1329.5 ± 1.6 | 115.55 ± 5.3
303.15 K | 1325.2 ± 1.6 | 89.6 ± 2.9
308.15 K | 1320.9 ± 1.6 | 70.72 ± 1.4
313.15 K | 1316.6 ± 1.5 | 56.77 ± 0.62
318.15 K | 1312.3 ± 1.5 | 46.23 ± 0.67
323.15 K | 1308 ± 1.5 | 38.14 ± 0.56
328.15 K | 1303.7 ± 1.5 | 31.86 ± 0.47
333.15 K | 1299.5 ± 1.5 | 26.91 ± 0.4
338.15 K | 1295.2 ± 1.5 | 22.95 ± 0.34
343.15 K | 1290.9 ± 1.5 | 19.77 ± 0.29
348.15 K | 1286.7 ± 1.5 | 17.16 ± 0.26
353.15 K | 1282.5 ± 1.5 | 15.02 ± 0.23
358.15 K | 1278.3 ± 1.5 | 13.23 ± 0.2
363.15 K | 1274.1 ± 1.5 | 11.74 ± 0.18

CCCC[n+]1ccccc1.O=S(=O)([N-]S(=O)(=O)C(F)(F)F)C(F)(F)F [1-butylpyridinium bis[(trifluoromethyl)sulfonyl]imide]
Details | mass density [kg/m3] | viscosity [mPa·s]
278.15 K | 1467.6 ± 1.9 | 181.81 ± 13
283.15 K | 1462.8 ± 1.9 | 133.34 ± 7.1
288.15 K | 1458.1 ± 1.8 | 100.65 ± 3.9
293.15 K | 1453.4 ± 1.8 | 77.72 ± 1.9
298.15 K | 1448.7 ± 1.8 | 61.25 ± 0.82
303.15 K | 1444 ± 1.8 | 49.15 ± 0.72
308.15 K | 1439.3 ± 1.8 | 40.09 ± 0.58
313.15 K | 1434.6 ± 1.8 | 33.17 ± 0.49
318.15 K | 1430 ± 1.8 | 27.81 ± 0.41
323.15 K | 1425.4 ± 1.8 | 23.59 ± 0.35
328.15 K | 1420.7 ± 1.8 | 20.23 ± 0.3
333.15 K | 1416.1 ± 1.8 | 17.51 ± 0.26
338.15 K | 1411.6 ± 1.7 | 15.28 ± 0.23
343.15 K | 1407 ± 1.7 | 13.44 ± 0.2
348.15 K | 1402.5 ± 1.7 | 11.91 ± 0.18
353.15 K | 1398 ± 1.7 | 10.62 ± 0.16
358.15 K | 1393.5 ± 1.7 | 9.528 ± 0.15
363.15 K | 1389 ± 1.7 | 8.594 ± 0.13

From the NIST ThermoML archive (doi:10.1021/je100377k)
